Among the data in ChEMBL document CHEMBL3045763, “Synthesis and evaluation of anti-proliferative activity of 1,4-disubstituted phthalazines” (Med Chem Res, 2012) are IC50 values, retold here.

The assay deals with MCF7. Kind of assay: Antiproliferative activity against Homo sapiens (human) MCF7 cells after 72 hr by SRB assay. It is filed as functional, cell-based. The note with it: MCF7, 72 h. In general terms: Sulforhodamine B stains cellular protein and so reports cell mass.

The IC50 is the concentration needed to halve the response being measured. Low values mean greater potency in that assay, high ones weaker potency in that assay. Take `COc1ccc(N2CCN(c3nnc(-c4ccc(Br)cc4)c4ccccc34)CC2)cc1`: inhibition was half-maximal at 17.5 µM (IC50).

The compound `CCOc1ccccc1N1CCN(c2nnc(-c3ccc(Br)cc3)c3ccccc23)CC1` gave an IC50 of 4.77 µM.

The compound `Brc1ccc(-c2nnc(N(Cc3ccccc3)Cc3ccccc3)c3ccccc23)cc1` registered a half-maximal inhibitory concentration (IC50) of 4.8 µM.

`Brc1ccc(-c2nnc(N3CCOCC3)c3ccccc23)cc1` gave an IC50 of 1.9 µM.

On to `Brc1ccc(-c2nnc(N3CCCCC3)c3ccccc23)cc1`, for which half-maximal inhibition (IC50) required 9.1 µM.

Consider `Brc1ccc(-c2nnc(Sc3nc4ccccc4s3)c3ccccc23)cc1`, for which the midpoint of inhibition, the IC50, lay at 2.3 µM.

Consider `Clc1cccc(Cl)c1Nc1nnc(-c2ccc(Br)cc2)c2ccccc12`, for which the IC50 came to 1.7 µM.

`Brc1ccc(-c2nnc(Nc3nccs3)c3ccccc23)cc1`: the IC50 is 1.4 µM.

The compound `Clc1ncccc1Nc1nnc(-c2ccc(Br)cc2)c2ccccc12` showed an IC50 of 1.7 µM.

For `CN1CCN(c2nnc(-c3ccc(Br)cc3)c3ccccc23)CC1`, half-maximal inhibition (IC50) required 1.5 µM.

As for `Brc1ccc(-c2nnc(N3CCN(c4ccccc4)CC3)c3ccccc23)cc1`, it took 9.7 µM to reach half-maximal inhibition (IC50).

Take `COc1ccccc1N1CCN(c2nnc(-c3ccc(Br)cc3)c3ccccc23)CC1`: the IC50 is 8.6 µM.
